Source: PMC7998669, “7-(2-Anilinopyrimidin-4-yl)-1-benzazepin-2-ones Designed by a “Cut and Glue” Strategy Are Dual Aurora A/VEGF-R Kinase Inhibitors” (Molecules, 2021)
pIC50, pKi: −log10 of the molar value. ≈ marks a conversion by molar mass, not a printed value.

Experiments:
Aurora A = molecular target: Aurora A; set-up: method as in PMID 27406026; details: cited from earlier work
Aurora-B = molecular target: T1, Aurora-B (Homo sapiens, UniProt Q96GD4); experiment: radiometric 33PanQinase protein kinase assay; assay type: biochemical; details: radiometric assay, 1 µM ATP
T1 construct: host or cells: Sf9 (baculovirus)
Procedure: (§1) The inhibitory activity of prototype 2a was determined in a panel of 24 tumor-relevant protein kinases using a radiometric assay. Only the kinases Aurora A, VEGF-R2 and VEGF-R3 were inhibited with single digit micromolar IC50 values (Table 2). Structural modifications were then implemented, particularly directed to improve inhibition of Aurora A. The so-designed congeners with small substituents at the aniline ring 2b–2n were examined for inhibition of Aurora A and of VEGF-R2, VEGF-R3 and Aurora B for comparison (Table 3).
(§2) The screening for protein kinase inhibition was performed with the radiometric ^33Panqinase activity assay at Reaction Biology Europe GmbH (Freiburg) using a robotic system (Beckmann Coulter/SagianRoboter) and 96-well plates (FlashPlates, Perkin/Elmer/NEN, Boston, MA, USA). In brief, the transfer of ^33P-phosphate into the substrate was measured with a microplate scintillation counter (Microbeta Trilux, Wallace). Protein kinases were expressed in Sf9 cells as recombinant glutathione S-transferase (GST) or polyhistidine (His)-tagged proteins in baculovirus. Isolation and purification of expressed kinases were performed with affinity chromatography by using GSH agarose (Sigma) or Ni-NTA agarose (Qiagen). The standard solution for each enzyme contained: 60 mM HEPES-NaOH (pH 7.5), 3 mM MgCl2, 3 µM sodium orthovanadate, 1.2 mM DTT, 50 µg/mL PEG20000 and 1 µM [γ-^33P]-ATP (approximately 5 × 10^5 cpm per well). In chronological order the reaction mixture was prepared: 20 µL standard solution, 5 µL ATP solution in water, 5 µL of the compound in 10% DMSO and 20 µL of enzyme/substrate mixture (50:50). Each kinase contained different substrates in different concentrations: 125 ng/50 µL Poly(Glu, Tyr)4:1 for 20 ng/50 µL IGF1-R, 25 ng/50 µL IGF1-R, 20 ng/50 µL EGF-R, 25 ng/50 µL EGF-R, 40 ng/50 µL EGF-R, 10 ng/50 µL EPHB4, 20 ng/50 µL EPHB4, 200 ng/50 µL ERBB2, 10 ng/50 µL SRC, 100 ng/50 µL FAK, 200 ng/50 µL FAK, 50 ng/50 µL VEGF-R2, 100 ng/50 µL VEGF-R3, 200 ng/50 µLTIE2; 250 ng/50 µL Poly(Glu, Tyr)4:1 for 200 ng/50 µL TIE2; 500 ng/50 µL tetra (LRRWSLG) for 50 ng/50 µL Aurora-A, 25 ng/50 µL PAK4, 25 ng/50 µL PDK1; 250 ng/50 µL tetra (LRRWSLG) for 50 ng/50 µL Aurora-B, 200 ng/50 µL Aurora-B; 125 ng/50 µL Histon H1 for 100 ng/50 µL CDK2/CycA; 250 ng/50 µL Rb-CTF for 50 ng/50 µL CDK/CycD1; 500 ng/50 µL Rb-CTF for 50 ng/50 µL CDK4/CycD1; 125 ng/50 µL Poly(ala, Glu, Lys, Tyr)6:2:5:1 for 25 ng/50 µL INS-R, 50 ng/50 µL PDGFR-beta, 100 ng/50 µL PDGFR-beta, 100 ng/50 µL FLT3, 150 ng/50 µL FLT3, 20 ng/50 µL MET, 50 ng/50 µL MET, 100 ng/50 µL MET; 250 ng/50 µL Casein for 200 ng/50 µL CK2-alpha1, 200 ng/50 µL PLK1; 1000 ng/50 µL Casein for 200 ng/50 µL PLK1, 200 ng/50 µL CK2-alpha1; 1000 ng/50 µLGSK3 (14–27) for 100 ng/50 µL AKT1; 125 ng/50 µL p53-CTM for 150 ng/50 µL CK2-alpha1, 200 ng/50 µLCK2-alpha1; 250 ng/50 µL MEK-KM for 20 ng/50 µL B-RAF-VE; autophosphorylation at ARK5, COT and SAK. After incubation (80 min, 30 °C) the reaction was stopped by adding 50 µL 2% (v/v) phosphoric acid to the reaction mixture. The microplate was washed twice with 200 µL 0.9% (v/v) saturated sodium chloride or water. The measured radioactivity, conditioned by the incorporation of [γ-^33P]-phosphate, is proportional to kinase activity. Furthermore, low control and high control were measured to determine the residual activity (%). As low controls, mixtures with substrate, but without enzyme were used to determine the unspecific binding of [γ-^33P]-phosphate to the well plate. Mixtures with enzyme, but without inhibitor were used as high controls to determine maximum enzyme activity. The IC50-values of the distinct compounds were calculated with Quattro Workflow V1.1.0.8 (Quattro Research GmbH, München, Germany). Dose response curves were generated by measurement of the residual activity of ten different inhibitor concentrations (0.1 mM, 30.0 µM, 10 µM, 3.0 µM, 1.0 µM, 0.3 µM, 0.1 µM, 30.0 nM, 10.0 nM and 3.0 nM). […]

Aurora-A = molecular target: T2, Aurora-A (Homo sapiens, UniProt O14965); experiment: radiometric 33PanQinase protein kinase assay; assay type: biochemical; details: radiometric assay, 1 µM ATP
T2 construct: host or cells: Sf9 (baculovirus)
T2 sequence (O14965 1-403): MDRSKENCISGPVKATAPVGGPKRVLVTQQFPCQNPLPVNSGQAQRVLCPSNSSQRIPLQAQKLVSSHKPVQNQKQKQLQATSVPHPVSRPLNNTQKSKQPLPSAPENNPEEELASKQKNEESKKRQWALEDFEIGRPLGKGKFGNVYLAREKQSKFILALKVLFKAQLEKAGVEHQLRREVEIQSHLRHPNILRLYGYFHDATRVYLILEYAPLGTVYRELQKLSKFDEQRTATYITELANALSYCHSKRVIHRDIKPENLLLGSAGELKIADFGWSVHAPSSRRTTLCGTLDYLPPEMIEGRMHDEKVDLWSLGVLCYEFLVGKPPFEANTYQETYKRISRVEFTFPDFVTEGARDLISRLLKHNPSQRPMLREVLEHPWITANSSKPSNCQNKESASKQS
Procedure: as §1, §2

VEGF-R2 = molecular target: T3, VEGF-R2 (Homo sapiens, UniProt P35968); experiment: radiometric 33PanQinase protein kinase assay; assay type: biochemical; details: radiometric assay, 1 µM ATP
T3 construct: host or cells: Sf9 (baculovirus)
Procedure: as §1, §2

VEGF-R3 = molecular target: T4, VEGF-R3 (Homo sapiens, UniProt P35916); experiment: radiometric 33PanQinase protein kinase assay; assay type: biochemical; details: radiometric assay, 1 µM ATP
T4 construct: host or cells: Sf9 (baculovirus)
Procedure: as §1, §2

[1] = kinetic solubility by nephelometry; assay type: physicochemical; details: phosphate buffer, 25 °C, pH 7.4, aqueous buffer, kinetic from dmso stock, phosphate buffer pH 7.4, 1% DMSO, mean of two measurements, range in brackets
Procedure: The kinetic solubility of test compounds was determined by nephelometry. Dilution series of test compounds in DMSO with eight to ten different concentrations were prepared. The dilutions were pipetted (2 µL) into the cavities of a 96 well plate (CorningTM UV-transparent flat-bottom microtiter plate; Corning Incorporated, Kennebunk, ME, USA). A phosphate buffer solution pH 7.4 (198 µL) was added, so that the DMSO concentration in the measured solutions was 1%. Three wells were filled with DMSO and phosphate buffer pH 7.4 (2:198) and measured as blank values. The 96 well plate prepared in this way was measured with the NEPHELOstar® Plus nephelometer (BMG Labtech GmbH, Ortenberg, Germany, software: Omega 5.11) at a temperature of 25 °C. Previously, the plate was shaken at 500 rpm for 10 s and the laser intensity was set to 80%. The beam focus was set to 2.50 mm. If the test substance is completely soluble, only a scattering close to the blank value is detected. As soon as a critical concentration is reached in which the kinetic solubility of the test compound is exceeded, solid particles precipitate. Undissolved particles in the sample scatter the laser beam. The intensity of the scattered light is determined, which is proportional to the number of particles in the solution. The blank values were determined and subtracted from the measured values of the test compounds. By measuring different concentrations of the test substances, different intensities of the scattered light, indicated as RNU (relative nephelometric units), were determined. Kick off curves were obtained by plotting concentrations against the RNU values. The point of intersection of the horizontal and of the ascending part of the kick-off curve indicated the kinetic solubility concentration.

T4 sequence (P35916 25-1363): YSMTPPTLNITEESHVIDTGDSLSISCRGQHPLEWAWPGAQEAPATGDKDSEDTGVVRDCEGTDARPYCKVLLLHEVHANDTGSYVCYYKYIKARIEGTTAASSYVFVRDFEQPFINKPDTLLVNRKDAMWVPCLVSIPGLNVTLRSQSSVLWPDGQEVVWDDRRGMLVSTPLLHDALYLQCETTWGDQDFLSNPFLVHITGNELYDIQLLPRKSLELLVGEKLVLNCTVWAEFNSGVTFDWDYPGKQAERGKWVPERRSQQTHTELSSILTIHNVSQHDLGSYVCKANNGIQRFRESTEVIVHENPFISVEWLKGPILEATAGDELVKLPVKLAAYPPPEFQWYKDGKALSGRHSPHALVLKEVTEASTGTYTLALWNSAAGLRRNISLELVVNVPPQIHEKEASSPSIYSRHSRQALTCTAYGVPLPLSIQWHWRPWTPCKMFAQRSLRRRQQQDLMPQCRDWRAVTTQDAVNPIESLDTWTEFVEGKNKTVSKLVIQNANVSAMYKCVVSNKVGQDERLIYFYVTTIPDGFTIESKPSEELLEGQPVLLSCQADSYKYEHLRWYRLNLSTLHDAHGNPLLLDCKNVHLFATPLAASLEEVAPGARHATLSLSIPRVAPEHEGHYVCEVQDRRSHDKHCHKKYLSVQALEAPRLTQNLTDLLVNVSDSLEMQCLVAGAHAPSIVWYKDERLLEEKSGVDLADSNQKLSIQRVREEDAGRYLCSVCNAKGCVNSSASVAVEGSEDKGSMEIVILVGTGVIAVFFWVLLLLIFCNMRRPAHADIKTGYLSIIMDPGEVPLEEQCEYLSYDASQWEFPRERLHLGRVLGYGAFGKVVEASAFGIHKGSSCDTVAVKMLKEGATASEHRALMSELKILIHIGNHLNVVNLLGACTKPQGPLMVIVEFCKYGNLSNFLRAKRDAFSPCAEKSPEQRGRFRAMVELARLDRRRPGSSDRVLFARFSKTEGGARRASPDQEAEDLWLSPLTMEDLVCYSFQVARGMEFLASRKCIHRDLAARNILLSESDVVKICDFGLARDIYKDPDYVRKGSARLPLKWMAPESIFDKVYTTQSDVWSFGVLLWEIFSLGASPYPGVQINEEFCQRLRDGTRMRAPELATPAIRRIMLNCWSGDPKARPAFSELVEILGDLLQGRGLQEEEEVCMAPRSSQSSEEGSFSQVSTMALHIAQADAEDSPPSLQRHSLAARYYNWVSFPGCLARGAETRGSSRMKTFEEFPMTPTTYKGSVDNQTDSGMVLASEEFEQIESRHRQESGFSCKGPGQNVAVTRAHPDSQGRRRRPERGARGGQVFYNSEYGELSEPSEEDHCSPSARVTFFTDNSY
T1 sequence (Q96GD4 whole entry): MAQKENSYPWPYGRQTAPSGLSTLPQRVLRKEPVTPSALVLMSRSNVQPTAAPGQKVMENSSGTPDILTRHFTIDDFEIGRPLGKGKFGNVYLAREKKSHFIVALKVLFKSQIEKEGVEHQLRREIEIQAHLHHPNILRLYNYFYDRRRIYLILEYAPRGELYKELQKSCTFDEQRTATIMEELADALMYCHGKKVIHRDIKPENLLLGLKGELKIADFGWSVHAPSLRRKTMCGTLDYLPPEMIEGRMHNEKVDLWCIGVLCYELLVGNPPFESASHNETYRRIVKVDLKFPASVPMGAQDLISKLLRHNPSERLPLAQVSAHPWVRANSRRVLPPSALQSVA
T3 sequence (P35968 20-1356): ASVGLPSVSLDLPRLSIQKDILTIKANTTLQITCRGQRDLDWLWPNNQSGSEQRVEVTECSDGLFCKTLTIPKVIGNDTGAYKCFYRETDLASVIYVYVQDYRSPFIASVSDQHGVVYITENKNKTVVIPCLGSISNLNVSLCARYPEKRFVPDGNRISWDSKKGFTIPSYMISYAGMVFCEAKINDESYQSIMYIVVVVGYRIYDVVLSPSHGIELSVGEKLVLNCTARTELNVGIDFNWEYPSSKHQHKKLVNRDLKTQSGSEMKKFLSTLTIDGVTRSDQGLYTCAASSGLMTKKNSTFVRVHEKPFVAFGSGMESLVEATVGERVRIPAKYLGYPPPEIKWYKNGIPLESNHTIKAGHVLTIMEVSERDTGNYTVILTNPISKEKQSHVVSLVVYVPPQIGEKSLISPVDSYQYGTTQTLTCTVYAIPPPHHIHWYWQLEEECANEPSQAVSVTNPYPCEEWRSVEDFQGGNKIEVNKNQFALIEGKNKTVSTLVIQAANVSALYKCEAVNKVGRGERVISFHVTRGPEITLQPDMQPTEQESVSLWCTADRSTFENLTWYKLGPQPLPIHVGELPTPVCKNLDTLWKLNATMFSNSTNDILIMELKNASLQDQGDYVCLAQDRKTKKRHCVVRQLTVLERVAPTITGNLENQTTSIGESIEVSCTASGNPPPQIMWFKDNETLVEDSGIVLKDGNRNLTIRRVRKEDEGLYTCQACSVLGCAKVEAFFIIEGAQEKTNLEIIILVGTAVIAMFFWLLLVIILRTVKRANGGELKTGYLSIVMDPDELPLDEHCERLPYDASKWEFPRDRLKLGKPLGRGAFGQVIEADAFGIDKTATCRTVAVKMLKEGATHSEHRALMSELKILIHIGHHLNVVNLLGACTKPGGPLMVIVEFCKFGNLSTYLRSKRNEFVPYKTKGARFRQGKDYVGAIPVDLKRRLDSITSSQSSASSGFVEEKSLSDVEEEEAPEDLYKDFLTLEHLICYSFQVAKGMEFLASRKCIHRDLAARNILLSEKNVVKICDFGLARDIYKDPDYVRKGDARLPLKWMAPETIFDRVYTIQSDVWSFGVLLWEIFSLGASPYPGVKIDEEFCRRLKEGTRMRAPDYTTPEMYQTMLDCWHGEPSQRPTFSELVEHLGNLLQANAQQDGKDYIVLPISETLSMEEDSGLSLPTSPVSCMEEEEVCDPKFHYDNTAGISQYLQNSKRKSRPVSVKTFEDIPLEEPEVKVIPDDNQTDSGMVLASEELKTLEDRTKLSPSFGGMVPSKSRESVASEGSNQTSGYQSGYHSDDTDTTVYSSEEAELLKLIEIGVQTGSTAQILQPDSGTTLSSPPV

| Structure (SMILES) | pIC50 (Aurora-A) | solubility kinetic at 10 s [1] [µM] | pIC50 (Aurora A) | also measured |
| --- | --- | --- | --- | --- |
| O=C1CCCc2cc(-c3ccnc(Nc4cccc(O)c4)n3)ccc2N1 [Compound 2m, 7-[2-(3-Hydroxyanilino)pyrimidin-4-yl]-1,3,4,5-tetrahydro-2H-1-benzazepin-2-one] | 5.77 | 112 (≈ 38.8 µg/mL) |  | pIC50 (Aurora-B): 5.17; pIC50 (VEGF-R2): 6.11; pIC50 (VEGF-R3): 6.27 |
| COc1ccc(Nc2nccc(-c3ccc4c(c3)CCCC(=O)N4)n2)cc1OCCCN1CCN(C)S1(=O)=O [Compound 14e, 7-(2-((4-Methoxy-3-(3-(5-methyl-1,1-dioxido-1,2,5-thiadiazolidin-2-yl)propoxy)phenyl)amino)pyrimidin-4-yl)-1,3,4,5-tetrahydro-2H-benzo[b]azepin-2-one] | 5.96 | 21.4 (≈ 11.8 µg/mL) |  |  |
| COc1ccc(Nc2nccc(-c3ccc4c(c3)CCCC(=O)N4)n2)cc1OCCCNS(=O)(=O)N1CCOCC1 [Compound 14f, N-{3-[2-Methoxy-5-((4-(2-oxo-2,3,4,5-tetrahydro-1H-benzo[b]azepin-7-yl)pyrimidin-2-yl)amino)phenoxy]-propyl}morpholine-4-sulfonamide] | 5.60 | 25 (≈ 14.6 µg/mL) |  |  |
| COc1ccc(Nc2nccc(-c3ccc4c(c3)CCCC(=O)N4)n2)cc1OCCCNS(=O)(=O)N1CCC1 [Compound 14g, N-{3-[2-Methoxy-5-((4-(2-oxo-2,3,4,5-tetrahydro-1H-benzo[b]azepin-7-yl)pyrimidin-2-yl)amino)phenoxy]-propyl}azetidine-1-sulfonamide] | 6.09 | 34.2 (≈ 18.9 µg/mL) |  |  |
| COc1cc(Nc2ncc3c(n2)-c2ccc(Cl)cc2C(c2c(F)cccc2OC)=NC3)ccc1C(=O)O [alisertib] |  |  | 8.92 |  |
